Measured values published in EP0702683B1, “06-SUBSTITUTED GUANINE DERIVATIVES, A PROCESS FOR THEIR PREPARATION AND THEIR USE IN TREATING TUMOUR CELLS” (Cancer Research Technology Limited, priority 1993, dated 1994).
Entries after “also recorded” stand apart in the source; their conditions may differ. Like-named read-outs stand apart in the source and are kept apart here.

Key:
ATase = target: T1, ATase (Cricetulus griseus, UniProt P26186); experiment: Inactivation of ATase activity in Hamster +120 cells; format: cell-based, Chinese hamster; conditions: 2 hours at 37°C, read-out: Inactivation of ATase in Mammalian Cells I50(µM) Hamster + 120
T1 construct: endogenous in cells; host or cells: Hamster +120 (V79 RJKO subline)
T1 sequence (P26186 1-209): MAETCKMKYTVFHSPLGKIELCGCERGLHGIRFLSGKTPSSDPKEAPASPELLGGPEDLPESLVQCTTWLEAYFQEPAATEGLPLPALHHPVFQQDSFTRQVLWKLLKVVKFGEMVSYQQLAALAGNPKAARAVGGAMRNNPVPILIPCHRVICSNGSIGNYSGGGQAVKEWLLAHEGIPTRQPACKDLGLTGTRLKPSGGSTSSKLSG
Protocol: Mammalian cells were cultured under standard conditions. For example, Raji (a human lymphoblastoid cell line from a Burkitt's lymphoma) cells were grown in suspension culture in RPMI medium supplemented with 10% horse serum. […]
Cells were diluted to 10^6/ml in culture medium containing either the appropriate concentration of inactivator or an equivalent volume of vehicle (DMSO). […] ATase activity was determined as described above, in duplicate sonicated cell extracts and expressed as the percentage activity remaining based on that present in the untreated controls (for example 350-450 fm/mg in Raji cells).

Raji cells = experiment: Sensitization of Raji cells to temozolomide (XTT assay); format: cell-based, human
Protocol: Following a 2 hour incubation at 37°C, medium containing either increasing doses of BCNU, temozolomide or equivalent vehicle was added and the cells allowed to grow for 6 days. At this time XTT solution was added and the cells incubated for a further 4 hours at 37°C. The resulting red/orange formazan reaction product was quantified by measuring absorption at 450nm on a microtitre platereader.

A375 tumour xenografts = experiment: Sensitization of A375 tumour xenografts to BCNU (tumour volume); format: in vivo, nude mice; conditions: 30 or 60 mg/kg i.p. 60 - 90 minutes prior to 10 - 25 mg/kg BCNU, Figs. 9-13, in words
Protocol: (§1) 0X6 OPT, England (OLAC mice). […] For this reason lower doses were administered.
A375M (human melanoma) cells were grown in DMEM containing 10% fetal bovine serum. The cells were prepared for in vivo inoculation by incubation with 0.01% trypsin.
Cells (10^6) in 100µl of PBS were injected subcutaneously into the right-hand flank of 8-10 week old nu/nu athymic mice. These cells were allowed to develop into a tumour for 3-4 weeks for passaging into experimental animals. Tumour blocks measuring 2mm x 2mm x 2mm were implanted subcutaneously on the right hand flank. These animals were ready for use in inactivator experiments in 7-10 days.
(§2) Xenograft tumour measurements were taken every 1-2 days by workers using digital calipers. Tumour volume was calculated using the formula (h x w x 1) π/6. The experimental animals were also weighed every 1-2 days. Measurements continued until tumours in the control animals reached the maximum allowable volume (i.e. 1cm x 1cm x 1cm).

[1] = Toxicity of inactivator in combination with BCNU in xenograft-bearing mice (survival); format: in vivo, nude mice; conditions: Figs. 9-13, in words
Protocol: as §1, §2

human bone marrow cells = experiment: Sensitization of bone marrow cells to temozolomide (GM-CFC assay); format: cell-based; conditions: for sensitization effect on human bone marrow cells to temozolomide, compared with 0^6-benzylguanine: 10µM inactivator, Figure 14, in words
Excerpt: For the granulocyte/macrophage colony-forming cell (GM-CFC) assay primary human bone marrow samples were obtained from patients undergoing cardiothoracic surgery. […] The colonies represented precursor cells of the granulocyte/macrophage lineage (huGM-CFC). Survival was expressed as a % of the number of colonies at zero dose temozolomide.

[2] = Inactivator toxicity in bone marrow cells (GM-CFC colonies, inactivator alone); format: cell-based, human; conditions: human, bone marrow gm-cfc, inactivator 10uM, read-out: No. of colonies as % of control (ie no inactivator)
Excerpt: (§3) For the granulocyte/macrophage colony-forming cell (GM-CFC) assay primary human bone marrow samples were obtained from patients undergoing cardiothoracic surgery. […] The colonies represented precursor cells of the granulocyte/macrophage lineage (huGM-CFC). […]

bone marrow cells = experiment: as above; format: cell-based, human; conditions: 10uM, 5 patients A - E, Table 7, in words
Excerpt: as §3

SMILES | IC50 (ATase) | sensitising Raji cells to the growth inhibitory effects of temozolomide, compared with BeG (Raji cells; 0.1uM inactivator, Figure 3, in words) | dose response of sensitization of Raji cells to temozolomide (Raji cells; inactivator 0.1 to 5.0µM, Figures 3 and 4, in words) | reducing tumour volume / sensitising human melanoma xenografts to BCNU, compared with BeG (A375 tumour xenografts) | toxicity in combination with BCNU in nude mice [1] | sensitization effect on human bone marrow cells to temozolomide, compared with 0^6-benzylguanine (human bone marrow cells; patient D) | sensitization effect on human bone marrow cells to temozolomide, compared with 0^6-benzylguanine (human bone marrow cells; patients C & E) | sensitization of GM-CFCs in human bone marrow samples to the toxic effects of temozolomide (human bone marrow cells; three samples tested (BeG: all three; B.4205: two of these), Fig. 14, in words) | viability at 216 h, 10 µM ([2]; Patient A) | viability at 216 h, 10 µM ([2]; Patient B) | viability at 216 h, 10 µM ([2]; Patient C) | viability at 216 h, 10 µM ([2]; Patient D) | viability at 216 h, 10 µM ([2]; Patient E) | toxic effect of inactivator alone on bone marrow cells, compared with 0^6-benzylguanine (bone marrow cells)
Nc1nc(OCc2ccco2)c2nc[nH]c2n1 [B.4203, O^6-furfurylguanine] | 0.12 µM | – | – | – | – | – | – | – | – | – | – | – | – | –
Nc1nc(OCc2cccs2)c2nc[nH]c2n1 [B.4205, O^6-thenylguanine] | – | more effective than BeG | lack of dose response | comparable to 0^6-benzylguanine (BeG) | substantially less toxic; also recorded: very little effect | no differential | smaller sensitization effect than 0^6-benzylguanine | little or no sensitization | 91% | 46% | 97% | 118% | 89% | comparable to those for 0^6-benzylguanine
